Legend:
cells = test: Cell images of cells co-cultured with the components of the nano/micro bubbles (FITC-insulin transmission); type: cell-based; details: cells co-cultured with the component; stained with Cld 4, E-cadherin, DAPI; FIG. 3
diabetic rats = test: Blood glucose change in diabetic rats after oral or subcutaneous administration; type: in vivo, male Wistar rats; details: subcutaneous injection, 5 IU/kg, 0 to 10 hours; FIG. 5
Method: Animal experimental procedures were performed based on the management and use of laboratory animals guidelines promulgated by the Council of Agriculture. About 300 to 350 grams of male rats (male Wistar rats) were used. The animal experiments were performed to investigate the treatment of diabetic rats using insulin-embedded carrier system by oral administration of drugs. During experiment, the rats were administrated by oral (30 IU/Kg) and subcutaneous (5 IU/Kg) administration after the rats were fixed. At different times, the animals were placed in the blood-drawing fixation frame to expose the tail, and then the tails were disinfected with iodine to prevent bacterial infection. […] Meanwhile, pharmacokinetics was measured using enzyme immunoassay. In the present example, groups comprising nano/micro bubbles of the present invention (containing 30 IU/kg of insulin), oral administration (30 IU/kg of insulin) and subcutaneous injection of insulin (5 IU/kg) are compared. The change rates in plasma insulin and blood glucose concentration from 0 to 10 hours after subjects taking insulin or injected with insulin were recorded respectively, and the results are illustrated in FIGS. 5a and 5b.

Row | Compound | transmission of FITC-insulin (pathway) (cells) | change rate of the blood glucose (diabetic rats)
1 | CCCCCCCCCCCCOS(=O)(=O)[O-].[Na+] [SDS] | can promote transmission of FITC-insulin via both of paracellular pathway and transcellular pathway | –
2 | insulin | – | rapidly declined and rose again
3 | O=C(O)CN(CCN1CC(=O)OC(=O)C1)CCN1CC(=O)OC(=O)C1 [DTPA dianhydride, diethylenetriaminepentaacetic dianhydride] | can promote transmission of FITC-insulin via paracellular pathway | –
